From BindingDB's records for doi:10.1021/jm960083n (Dupont Pharmaceuticals, 1996)
pKi: −log10 of the molar value.

Target: T1, Dimer of Gag-Pol polyprotein [489-587] (Human immunodeficiency virus 1, UniProt P12497)
T1 construct: 489-587
Test: Protease Inhibition Assay
Details: pH 5.5; 37 °C
Experimental: Inhibition of HIV protease was measured by assay of the cleavage of a fluorescent peptide substrate. The fluorescent product (2-aminobenzoyl-Ala-Thr-His-Gln-Val-Tyr) was separated from the fluorescent substrate by anion-exchange HPLC on a Mono-Q anion-exchange column (Pharmacia), and fluorescence was monitored at an excitation wavelength of 330 nm and an emission wavelength of 430 nm. Ki values for inhibitor binding were estimated at fixed concentrations of substrate and inhibitor from fractional activity measurements by use of the modified Michaelis-Menten equation.

| Compound | pKi |
| --- | --- |
| CC(=O)c1cc(CN2C(=O)N(Cc3ccc(F)c(C(C)=O)c3)[C@H](Cc3ccc4c(c3)OCO4)[C@H](O)[C@@H](O)[C@H]2Cc2ccc3c(c2)OCO3)ccc1F [(4R,5S,6S,7R)-Hexahydro-5,6-dihydroxy-1,3-bis(4-fluoro-3-acetylbenzyl)-4,7-bis((3,4-(methylenedioxy)phenyl)methyl)-2H-1,3-diazapin-2-one] | 8.82 |
| CC(=O)c1cccc(CN2C(=O)N(Cc3cccc(C(C)=O)c3)[C@H](Cc3ccc4c(c3)OCO4)[C@H](O)[C@@H](O)[C@H]2Cc2ccc3c(c2)OCO3)c1 [(4R,5S,6S,7R)-Hexahydro-5,6-dihydroxy-1,3-bis(3-acetylbenzyl)-4,7-bis((3,4-(methylenedioxy)phenyl)methyl)-2H-1,3-diazapin-2-one] | 10.37 |
| COc1cc(C[C@@H]2[C@H](O)[C@@H](O)[C@@H](Cc3cc(OC)cc(OC)c3)N(Cc3cccc(C(C)=O)c3)C(=O)N2Cc2cccc(C(C)=O)c2)cc(OC)c1 [(4R,5S,6S,7R)-4,7-bis[(3,5-dimethoxyphenyl)methyl]-1,3-bis[(3-acetylphenyl)methyl]-5,6-dihydroxy-1,3-diazepan-2-one] | 9.40 |
| CC(=O)c1cccc(CN2C(=O)N(Cc3cccc(C(C)=O)c3)[C@H](Cc3ccc4c(c3)N(C)CCO4)[C@H](O)[C@@H](O)[C@H]2Cc2ccc3c(c2)N(C)CCO3)c1 [(4R,5S,6S,7R)-Hexahydro-5,6-dihydroxy-1,3-bis(3-acetylbenzyl)-4,7-bis((4-methyl-3,4-dihydro-2H-benzo[b][1,4]-oxazin-6-yl)methyl)-2H-1,3-diazapin-2-one] | 10.10 |
